Source: patent US20180110754A1, “CENICRIVIROC FOR THE TREATMENT OF FIBROSIS” (Tobira Therapeutics, Inc., priority 2015, published 2018)
Read-outs that look alike come from different tables or passages of the source.

Tests used:
[1] = Study 202: ECG abnormalities and vital signs; format: in vivo, human; conditions: for HR Abnormally high, n subjects / HR Abnormally low, n subjects / PR Abnormally high, n subjects / QRS Abnormally high, n subjects / QRS Abnormally low, n subjects / QTcB interval Borderline (450-480 ms), n subjects / QTcB interval Increase by >30-60 ms, n subjects / QTcB interval Increase by >60 ms, n subjects / QTcB interval Pathologically prolonged, n subjects / QTcB interval Prolonged, n subjects / QTcF interval Borderline (450-480 ms), n subjects / QTcF interval Increase by >30-60 ms, n subjects / QTcF interval Increase by >60 ms, n subjects / QTcF interval Pathologically prolonged, n subjects / QTcF interval Prolonged, n subjects: through Week 48
[2] = for SAE: Suicidal ideation, n subjects: through Week 48
Excerpt: Subjects with a history of HIV-2, hepatitis B and/or C, cirrhosis of the liver or any known active or chronic active liver disease were excluded from the study.
Most AEs were mild or moderate (Grade 1 or Grade 2). […] None of the Grade ≥3 AEs (preferred terms) were reported in more than 1 subject.

[3] = All CVC (N = 115), EFV (N = 28)

## CCCCOCCOc1ccc(-c2ccc3c(c2)/C=C(/C(=O)Nc2ccc([S@@+]([O-])Cc4cncn4CCC)cc2)CCCN3CC(C)C)cc1 [CVC, (S)-8-[4-(2-Butoxyethoxy)phenyl]-1-isobutyl-N-(4-{[(1-propyl-1H-imidazol-5-yl)methyl]sulfinyl}phenyl)-1,2,3,4-tetrahydro-1-benzazocine-5-carboxamide]
[1]; [3]
  HR Abnormally high, n subjects: 0
  HR Abnormally low, n subjects: 0
  PR Abnormally high, n subjects: 3
  QRS Abnormally high, n subjects: 1
  QRS Abnormally low, n subjects: 0
  QTcB interval Borderline (450-480 ms), n subjects: 6
  QTcB interval Increase by >30-60 ms, n subjects: 9
  QTcB interval Increase by >60 ms, n subjects: 1
  QTcB interval Pathologically prolonged, n subjects: 0
  QTcB interval Prolonged, n subjects: 0
  QTcF interval Borderline (450-480 ms), n subjects: 2
  QTcF interval Increase by >30-60 ms, n subjects: 7
  QTcF interval Increase by >60 ms, n subjects: 1
  QTcF interval Pathologically prolonged, n subjects: 0
  QTcF interval Prolonged, n subjects: 0
[1]; CVC 100 mg (N = 58)
  HR Abnormally high, n subjects: 0
  HR Abnormally low, n subjects: 0
  PR Abnormally high, n subjects: 2
  QRS Abnormally high, n subjects: 1
  QRS Abnormally low, n subjects: 0
  QTcB interval Borderline (450-480 ms), n subjects: 4
  QTcB interval Increase by >30-60 ms, n subjects: 6
  QTcB interval Increase by >60 ms, n subjects: 1
  QTcB interval Pathologically prolonged, n subjects: 0
  QTcB interval Prolonged, n subjects: 0
  QTcF interval Borderline (450-480 ms), n subjects: 1
  QTcF interval Increase by >30-60 ms, n subjects: 4
  QTcF interval Increase by >60 ms, n subjects: 1
  QTcF interval Pathologically prolonged, n subjects: 0
  QTcF interval Prolonged, n subjects: 0
[1]; CVC 100 mg arm
  Subjects with QTc increase of >60 msec: 1 subject
[1]; CVC 200 mg (N = 57)
  HR Abnormally high, n subjects: 0
  HR Abnormally low, n subjects: 0
  PR Abnormally high, n subjects: 1 (2%)
  QRS Abnormally high, n subjects: 0
  QRS Abnormally low, n subjects: 0
  QTcB interval Borderline (450-480 ms), n subjects: 2 (4%)
  QTcB interval Increase by >30-60 ms, n subjects: 3 (6%)
  QTcB interval Increase by >60 ms, n subjects: 0
  QTcB interval Pathologically prolonged, n subjects: 0
  QTcB interval Prolonged, n subjects: 0
  QTcF interval Borderline (450-480 ms), n subjects: 1 (2%)
  QTcF interval Increase by >30-60 ms, n subjects: 3 (6%)
  QTcF interval Increase by >60 ms, n subjects: 0
  QTcF interval Pathologically prolonged, n subjects: 0
  QTcF interval Prolonged, n subjects: 0
[2]; All CVC (N = 115)
  Deaths: 0 n
[2]; [3]
  SAE: Suicidal ideation, n subjects: 0
[2]; All CVC (N = 115), EFV (N = 28; Grade 4 event)
  Grade 3 or 4 AE: Suicidal ideation, n subjects: 0
[2]; CVC 100 mg (N = 58)
  Any AE, n subjects: 51
  Any Grade 3 AE, n subjects: 2
  Any Grade 4 AE, n subjects: 0
  Deaths: 0 n
  Grade 3 or 4 AE: Abdominal pain, n subjects: 1
  Grade 3 or 4 AE: Blindness unilateral, n subjects: 0
  Grade 3 or 4 AE: Blood creatine phosphokinase increased, n subjects: 0
  Grade 3 or 4 AE: Cardiac disorders, n subjects: 1
  Grade 3 or 4 AE: Corneal infection, n subjects: 0
  Grade 3 or 4 AE: Suicidal ideation, n subjects: 0
  SAE: Suicidal ideation, n subjects: 0
[2]; CVC 200 mg (N = 57)
  Any AE, n subjects: 48
  Any Grade 3 AE, n subjects: 3
  Any Grade 4 AE, n subjects: 0
  Deaths: 0 n
  Grade 3 or 4 AE: Abdominal pain, n subjects: 0
  Grade 3 or 4 AE: Blindness unilateral, n subjects: 1
  Grade 3 or 4 AE: Blood creatine phosphokinase increased, n subjects: 1
  Grade 3 or 4 AE: Cardiac disorders, n subjects: 0
  Grade 3 or 4 AE: Corneal infection, n subjects: 1
  Grade 3 or 4 AE: Suicidal ideation, n subjects: 0
  SAE: Suicidal ideation, n subjects: 0
[2]; human, in vivo, 48 week
  Grade 3 or 4 AE: Blood creatine phosphokinase increased, n subjects: 1
  Grade 3 or 4 AE: Cardiac disorders, n subjects: 1
  Grade 3 or 4 AE: Depression, n subjects: 0
  Grade 3 or 4 AE: Ear and labyrinth disorders, n subjects: 0
  Grade 3 or 4 AE: Investigations, n subjects: 1
  Grade 3 or 4 AE: Palpitations, n subjects: 1
  Grade 3 or 4 AE: Psychiatric disorders, n subjects: 1
  Grade 3 or 4 AE: Stress, n subjects: 1
  Grade 3 or 4 AE: Weight decreased, n subjects: 0
[2]; human, in vivo, 48 weeks
  AE Abnormal dreams, n subjects: 9
  AE Depression, n subjects: 3
  AE Diarrhoea, n subjects: 17
  AE Dizziness, n subjects: 11
  AE Fatigue, n subjects: 14
  AE Headache, n subjects: 16
  AE Insomnia, n subjects: 7
  AE Lymphadenopathy, n subjects: 7
  AE Nasopharyngitis, n subjects: 10
  AE Nausea, n subjects: 18
  AE Rash, n subjects: 14
  AE Syphilis, n subjects: 1
  AE Upper respiratory tract infection, n subjects: 18
  AE leading to discontinuation: Abnormal dreams, n subjects: 0
  AE leading to discontinuation: Aggression, n subjects: 1
  AE leading to discontinuation: Anxiety, n subjects: 0
  AE leading to discontinuation: Depression, n subjects: 1
  AE leading to discontinuation: Dermatitis allergic, n subjects: 0
  AE leading to discontinuation: Disturbance in attention, n subjects: 0
  AE leading to discontinuation: Dizziness, n subjects: 0
  AE leading to discontinuation: Ear and labyrinth disorders, n subjects: 0
  AE leading to discontinuation: Eye disorders, n subjects: 0
  AE leading to discontinuation: Gastrointestinal disorders, n subjects: 0
  AE leading to discontinuation: General disorders and administration site conditions, n subjects: 1
  AE leading to discontinuation: Hypoaesthesia, n subjects: 0
  AE leading to discontinuation: Insomnia, n subjects: 0
  AE leading to discontinuation: Malaise, n subjects: 1
  AE leading to discontinuation: Musculoskeletal and connective tissue disorders, n subjects: 0
  AE leading to discontinuation: Musculoskeletal discomfort, n subjects: 0
  AE leading to discontinuation: Nausea, n subjects: 0
  AE leading to discontinuation: Nervous system disorders, n subjects: 0
  AE leading to discontinuation: Photophobia, n subjects: 0
  AE leading to discontinuation: Psychiatric disorders, n subjects: 1
  AE leading to discontinuation: Rash, n subjects: 0
  AE leading to discontinuation: Skin and subcutaneous tissue disorders, n subjects: 0
  AE leading to discontinuation: Tachyphrenia, n subjects: 0
  AE leading to discontinuation: Thinking abnormal, n subjects: 1
  AE leading to discontinuation: Tinnitus, n subjects: 0
  Any AE leading to discontinuation of study drug, n subjects: 1
  Any AE, n subjects: 99
  Any Grade 3 AE, n subjects: 5
  Any Grade 4 AE, n subjects: 0
  Any SAE, n subjects: 2
  Grade 3 or 4 AE: Abdominal pain, n subjects: 1
  Grade 3 or 4 AE: Blindness unilateral, n subjects: 1
  Grade 3 or 4 AE: Corneal infection, n subjects: 1
  Grade 3 or 4 AE: Dermatitis allergic, n subjects: 0
  Grade 3 or 4 AE: Eye disorders, n subjects: 1
  Grade 3 or 4 AE: Gastrointestinal disorders, n subjects: 1
  Grade 3 or 4 AE: General disorders and administration site conditions, n subjects: 1
  Grade 3 or 4 AE: Infections and infestations, n subjects: 1
  Grade 3 or 4 AE: Pyrexia, n subjects: 1
  Grade 3 or 4 AE: Skin and subcutaneous tissue disorders, n subjects: 0
  Grade 3 or 4 AE: Tinnitus, n subjects: 0
  SAE: Blindness unilateral, n subjects: 1
  SAE: Corneal infection, n subjects: 1
  SAE: Depression, n subjects: 0
  SAE: Eye disorders, n subjects: 1
  SAE: Gastroenteritis, n subjects: 1
  SAE: Infections and infestations, n subjects: 2
  SAE: Psychiatric disorders, n subjects: 0
  Subjects who experienced a Grade ≥3 AE: 4%
  Subjects with AEs, worst grade severity Grade 4: 0 n
